Data reported in patent US8309550B2, “Kinase inhibitors and their use as pharmaceutical agents” (Shanghai Genomics, Inc., priority 2011, dated 2012).
Read-outs that look alike come from different tables or passages of the source.

Key:
[1] = target: T1, CDK1/cyclinB (Homo sapiens, UniProt P06493); assay: Z'-LYTE kinase assay CDK1/cyclinB; type: biochemical
T1 construct: purchased Invitrogen PV3292
Outline: (§1)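 For CDK1/cyclinB and CDK5/p35, each human recombinant enzyme was used at 0.8 ng/reaction on Ser/Thr 12 peptide under 20 μM ATP. Inhibition was measured by Z′-LYTE FRET after 1 h reaction plus 1 h development at room temperature.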

[2] = target: T2, CDK2/cyclinA (Homo sapiens, UniProt P24941); assay: Z'-LYTE kinase assay CDK2/cyclinA; type: biochemical
T2 construct: purchased Invitrogen PV3267
Outline: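 Recombinant human CDK2/cyclinA (Invitrogen PV3267) at 8 ng/reaction was incubated with Z′-LYTE™ Ser/Thr 12 Peptide and ATP in 384-well plates holding diluted test compounds for 1 hr at room temperature. Buffer contained 20 μM ATP, HEPES pH 7.5, 5 mM MgCl2, 0.5 mM EGTA and 0.005% Brij-35. IC50 came from sigmoid curve fitting in Origin 6.0.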

[3] = target: T3, CDK5/p35 (Homo sapiens, UniProt Q00535); assay: Z'-LYTE kinase assay CDK5/p35; type: biochemical
T3 construct: purchased Invitrogen PV3000
Outline: as §1

[4] = target: T4, Aurora A (Homo sapiens, UniProt O14965); assay: Z'-LYTE kinase assay Aurora A; type: biochemical
T4 construct: purchased Invitrogen PV3612
T4 sequence (O14965 1-403): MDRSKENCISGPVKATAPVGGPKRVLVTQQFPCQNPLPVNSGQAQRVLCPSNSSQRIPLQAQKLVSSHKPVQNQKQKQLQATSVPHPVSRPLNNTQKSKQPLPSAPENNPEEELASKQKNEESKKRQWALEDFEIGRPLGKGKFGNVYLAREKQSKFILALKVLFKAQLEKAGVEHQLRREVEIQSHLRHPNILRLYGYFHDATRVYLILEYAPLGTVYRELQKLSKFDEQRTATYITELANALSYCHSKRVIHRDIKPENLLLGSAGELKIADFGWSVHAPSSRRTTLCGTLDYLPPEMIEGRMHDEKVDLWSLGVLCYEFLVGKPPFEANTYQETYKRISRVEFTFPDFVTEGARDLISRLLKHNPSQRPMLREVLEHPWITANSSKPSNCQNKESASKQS
Outline: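 Recombinant human Aurora A (PV3612, Invitrogen) was assayed with a Z′-LYTE™ kinase kit at 16 ng/reaction using Ser/Thr 1 Peptide substrate. Enzyme, peptide and ATP were added to 384-well plates with diluted compounds and incubated 1 hr at room temperature in buffer containing 20 μM ATP, HEPES pH 7.5, 5 mM MgCl2, 0.5 mM EGTA and 0.005% Brij-35.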

[5] = target: Aurora B (Homo sapiens, UniProt Q96GD4); assay: Kinase assay Aurora B (Table I); type: biochemical
[6] = test system: H460-luc; assay: 72 h MTT cytotoxicity assay H460-luc; type: cell-based; conditions: Homo sapiens
Description: (§2) MIT cytotoxicity assay. The compounds of the invention were subjected to a standard cellular proliferation assay using human cell lines. HeLa cells (Human cervix adenocarcinoma cell line, ATCC NO, CCL-2); A549 cells (Human lung carcinoma cells line, ATCC NO, CCL-185); U2OS cells (Human osteosarcoma cell line, ATCC NO, HTB-96); Eca-109 cells (Human esophageal carcinoma cell line); HepG2 (Human hepatocellular liver carcinoma cell line, ATCC NO, HB-8065); K562 cells (Human chronic myelogenous leukemia cell line, ATCC NO, CCL-243); SK-MEL-28 (Human malignant melanoma cell line, ATCC NO, HTB-72); Molt-4 (Human acute lymphoblastic leukemia cell line, ATCC NO, CRL-1582); H460 (Human large cell lung cancer cell line, ATCC NO, HTB-177); MDA-MB-231 (Human breast adenocarcinoma cell line, ATCC NO, HTB-26); MCF7 (Human breast adenocarcinoma cell line, ATCC NO, HTB-22); ACHN (Human renal cell adenocarcinoma cell line, ATCC NO, CRL-1611); PC-3M (Human prostate adenocarcinoma cell line, ATCC NO CRL-1435); HL60 (Human acute promyelocytic leukemia cell line, ATCC NO, CCL-240); THP-1 (Human acute monocytic leukemia, ATCC NO, TIB-202); Jurkat (Human acute T cell leukemia cell line, ATCC NO, CRL-2063); HCT-116 (Human colorectal carcinoma cell line, ATCC NO, CCL-247); HT-29 (Human colorectal adenocarcinoma cell line, ATCC NO, HTB-38™); WI-38 (Human normal lung cell line, ATCC NO, CCL-75); MRC-5 (Human normal lung cell line, ATCC NO, CCL-171).
(§3) HepG2, MDA-MB-231, WI-38 and MRC-5 cells were obtained from Shanghai Institute of Cell Biology, Chinese Academy of Sciences (Shanghai 200031, China). A549, HeLa, K562, MCF7, ACHN, H460, U2OS, Eca-109, MCF7, HL60, THP-1, Jurkat, HCT-116, HT-29, PC-3M, SK-MEL-28, Molt-4, H460 and […] cells were purchased from ATCC (American Type Culture Collection, USA).
(§4) Standard 72 h MTT (thiazolye blue; 3-[4,5-dimethylthiazol-2-yl]-2,5-diphenyltetrazolium bromide) assays were performed. Briefly, the cell lines used in this study were recovered and cultured according to the conditions recommended. 4000 cells per well were seeded into 96-well plates according to doubling time and incubated overnight at 37° C. Compounds were prepared in DMSO and a ½ dilution series in 100 μl cell culture media, added to cells (in duplicates) with the final DMSO concentration of 0.025%, and incubated for 72 hrs at 37° C. MTT solution (5 mg/ml) was added at 10 μl per well and incubated in the dark at 37° C. for 4 hr. Culture medium and MTT solution was removed. MTT dye was solubilised with 100 μl per well of DMSO with agitation. Absorbance was read at 562 nm and data analyzed using Sigmoid curve-fitting software Origin 6.0 (MicroCal, LLC, USA) to determine IC50 value.

[7] = test system: MDA-MB-231-luc; assay: 72 h MTT cell viability MDA-MB-231-luc; type: cell-based; conditions: Homo sapiens
Description: as §2, §3, §4

[8] = Table III, read-out: Target biochemical activity IC50 CDK1
[9] = Table III, read-out: Target biochemical activity IC50 CDK2
[10] = Table III, read-out: Target biochemical activity IC50 CDK5
[11] = Table III, read-out: Target biochemical activity IC50 Aurora A
[12] = Table III, read-out: Target biochemical activity IC50 Aurora B
[13] = H460, Table III, read-out: Cellular effect in mammalian cells IC50 H460
[14] = read-out: Kinase inhibition, IC50 CDK1B
[15] = read-out: Kinase inhibition, IC50 CDK2A
[16] = read-out: Kinase inhibition, IC50 CDK5/p35
[17] = read-out: Kinase inhibition, IC50 Aurora A
[18] = read-out: Kinase inhibition, IC50 Aurora B
[19] = NCI-H460-Luc, H460-luc, 72 hrs, read-out: Cytotoxicity, MTT 72 hrs, IC50 H460-luc

T1 sequence (P06493 whole entry): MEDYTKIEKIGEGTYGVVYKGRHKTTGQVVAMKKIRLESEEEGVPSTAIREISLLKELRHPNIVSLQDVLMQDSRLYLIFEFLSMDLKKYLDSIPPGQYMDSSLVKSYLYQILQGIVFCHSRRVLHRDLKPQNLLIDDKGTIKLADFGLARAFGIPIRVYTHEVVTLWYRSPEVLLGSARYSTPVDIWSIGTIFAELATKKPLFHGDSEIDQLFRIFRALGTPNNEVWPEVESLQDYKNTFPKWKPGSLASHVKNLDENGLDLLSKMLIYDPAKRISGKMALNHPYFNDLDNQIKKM
T1 sequence (P14635 whole entry partner): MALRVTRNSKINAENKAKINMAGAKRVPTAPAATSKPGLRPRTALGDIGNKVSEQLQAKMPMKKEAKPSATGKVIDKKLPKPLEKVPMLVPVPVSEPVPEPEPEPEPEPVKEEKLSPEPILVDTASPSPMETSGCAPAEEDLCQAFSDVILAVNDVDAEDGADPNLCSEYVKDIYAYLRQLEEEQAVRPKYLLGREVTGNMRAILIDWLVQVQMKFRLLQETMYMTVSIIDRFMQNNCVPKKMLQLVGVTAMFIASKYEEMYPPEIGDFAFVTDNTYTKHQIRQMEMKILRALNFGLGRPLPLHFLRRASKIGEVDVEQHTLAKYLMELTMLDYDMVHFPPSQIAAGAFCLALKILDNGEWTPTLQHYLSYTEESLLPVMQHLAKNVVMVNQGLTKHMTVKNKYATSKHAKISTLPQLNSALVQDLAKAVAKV
T3 sequence (Q00535 whole entry): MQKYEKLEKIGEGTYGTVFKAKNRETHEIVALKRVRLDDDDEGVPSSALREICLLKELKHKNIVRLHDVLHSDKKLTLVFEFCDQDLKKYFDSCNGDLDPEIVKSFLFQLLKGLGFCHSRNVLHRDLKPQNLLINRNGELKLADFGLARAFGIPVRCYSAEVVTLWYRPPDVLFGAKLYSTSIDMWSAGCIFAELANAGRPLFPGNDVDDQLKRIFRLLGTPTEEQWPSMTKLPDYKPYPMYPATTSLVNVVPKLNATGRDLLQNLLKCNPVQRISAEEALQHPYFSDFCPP
T3 sequence (Q15078 whole entry partner): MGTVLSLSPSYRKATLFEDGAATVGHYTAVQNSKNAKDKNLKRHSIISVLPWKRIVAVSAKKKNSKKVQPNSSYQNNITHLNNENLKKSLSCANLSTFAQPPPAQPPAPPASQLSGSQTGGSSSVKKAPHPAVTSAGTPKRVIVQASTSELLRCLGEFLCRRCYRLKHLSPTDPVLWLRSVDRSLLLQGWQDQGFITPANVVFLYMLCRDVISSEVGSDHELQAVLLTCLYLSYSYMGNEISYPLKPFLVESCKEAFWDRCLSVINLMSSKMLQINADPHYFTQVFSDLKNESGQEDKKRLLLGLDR
Aurora B, sequence (Q96GD4 whole entry): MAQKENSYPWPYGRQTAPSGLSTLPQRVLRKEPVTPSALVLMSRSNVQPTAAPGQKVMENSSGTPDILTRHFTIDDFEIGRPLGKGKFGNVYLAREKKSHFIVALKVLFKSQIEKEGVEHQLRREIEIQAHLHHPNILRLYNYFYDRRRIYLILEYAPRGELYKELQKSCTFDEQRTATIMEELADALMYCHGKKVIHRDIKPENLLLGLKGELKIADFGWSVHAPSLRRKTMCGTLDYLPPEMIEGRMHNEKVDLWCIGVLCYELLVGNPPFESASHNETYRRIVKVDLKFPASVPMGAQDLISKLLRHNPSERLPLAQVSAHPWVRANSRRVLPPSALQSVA

Structure (SMILES) | IC50 [1, 8] [nM] | IC50 [2, 9] [nM] | IC50 [3, 10] [nM] | IC50 [4, 11] [nM] | IC50 [5, 12] [nM] | IC50 [1, 14] [nM] | IC50 [2, 15] [nM] | IC50 [3, 16] [nM] | IC50 [4, 17] [nM] | IC50 [5, 18] [nM] | IC50 [7] [nM] | IC50 [6, 13] [nM] | IC50 [6, 19] [nM]
CCCn1cc(-c2ccnc(Nc3cccc(O)c3)n2)c2cccnc21 [Compound 16, 3-(4-(1-Propyl-1H-pyrrolo[2,3-b]pyridin-3-yl)pyrimidin-2-ylamino)phenol] |  |  |  |  |  | 1360 | 6 | 2320 | > 10000 | 1250 | 5270 |  | 4060
CCCn1cc(-c2ccnc(Nc3cccc(S(N)(=O)=O)c3)n2)c2ccnc(Cl)c21 [Compound 96, 3-(4-(7-chloro-1-propyl-1H-pyrrolo[2,3-c]pyridin-3-yl)pyrimidin-2-ylamino)benzenesulfonamide] |  |  |  |  |  | < 0.1 | < 0.1 | 20 | 800 | > 10000 |  |  | 260
CCCn1cc(-c2ccnc(Nc3ccc(O)cc3)n2)c2cccnc21 [Compound 15, 4-(4-(1-Propyl-1H-pyrrolo[2,3-b]pyridin-3-yl)pyrimidin-2-ylamino)phenol] |  |  |  |  |  | 1670 | 28 | 2240 | 210 | 670 | 5940 |  | 4980
CCCn1cc(-c2ccnc(Nc3cccc(S(N)(=O)=O)c3)n2)c2cccnc21 [Compound 22, 3-(4-(1-Propyl-1H-pyrrolo[2,3-b]pyridin-3-yl)pyrimidin-2-ylamino)benzenesulfonamide] |  |  |  |  |  | 450 | 190 | 400 | 8 | 3600 |  |  | 1110
CCCn1cc(-c2ccnc(Nc3ccc(C)c(S(=O)(=O)N4CCOCC4)c3)n2)c2cccnc21 [Compound 24, N-(4-Methyl-3-(morpholinosulfonyl)phenyl)-4-(1-propyl-1H-pyrrolo[2,3-b]pyridin-3-yl)pyrimidin-2-amine] |  |  |  |  |  | 5190 | 4580 | 8900 | 9440 | ≥ 10000 |  |  | 1410
CCCn1cc(-c2ccnc(Nc3cccc(S(N)(=O)=O)c3)n2)c2ccncc21 [Compound 111, 3-(4-(1-Propyl-1H-pyrrolo[2,3-c]pyridin-3-yl)pyrimidin-2-ylamino)benzenesulfonamide] |  |  |  |  |  | 0.4 | 0.5 | 0.5 | 50 | 59 | 30 |  | 6
CCn1cc(-c2ccnc(Nc3cccc(S(N)(=O)=O)c3)n2)c2cccnc21 [Compound 18, 3-(4-(1-Ethyl-1H-pyrrolo[2,3-b]pyridin-3-yl)pyrimidin-2-ylamino)benzenesulfonamide] | 624 | 3 | 271 | 30 | 700 | 624 | 3 | 271 | 30 | 700 | 3300 | 1270 | 1270
CCCn1cc(-c2ccnc(Nc3ccc(C)c(S(=O)(=O)N4CCOCC4)c3)n2)c2ccncc21 [Compound 102, N-(4-Methyl-3-(morpholinosulfonyl)phenyl)-4-(1-propyl-1H-pyrrolo[2,3-c]pyridin-3-yl)pyrimidin-2-amine] |  |  |  |  |  | 70 | 30 | 25 | 1650 | 3420 | 750 |  | 220
CCCn1cc(-c2ccnc(Nc3cccc(S(N)(=O)=O)c3)n2)c2nc(Cl)cc(C)c21 [Compound 42, 3-(4-(5-Chloro-7-methyl-1-propyl-1H-pyrrolo[3,2-b]pyridin-3-yl)pyrimidin-2-ylamino)benzenesulfonamide] |  |  |  |  |  | 6840 | > 10000 | > 10000 | 98 | 190 | 1280 |  | 2000
CCCn1cc(-c2ccnc(Nc3ccc(S(N)(=O)=O)cc3)n2)c2ccncc21 [Compound 112, 4-(4-(1-Propyl-1H-pyrrolo[2,3-c]pyridin-3-yl)pyrimidin-2-ylamino)benzenesulfonamide] |  |  |  |  |  | 0.4 | 10 | 1.3 | 820 | 1.6 |  |  | 20
CCn1cc(-c2ccnc(Nc3cccc(C#N)c3)n2)c2cccnc21 [Compound 20, 3-(4-(1-Ethyl-1H-pyrrolo[2,3-b]pyridin-3-yl)pyrimidin-2-ylamino)benzonitrile] |  |  |  |  |  | 7010 | 3480 | 4610 | 6990 | > 10000 | 4680 |  | > 10000

Further lines, with some results ahead:

IC50 [1, 8] [nM] | IC50 [2, 9] [nM] | IC50 [3, 10] [nM] | IC50 [4, 11] [nM] | IC50 [5, 12] [nM] | IC50 [1, 14] [nM] | IC50 [2, 15] [nM] | IC50 [3, 16] [nM] | IC50 [4, 17] [nM] | IC50 [5, 18] [nM] | IC50 [7] [nM] | Structure (SMILES) | IC50 [6, 13] [nM] | IC50 [6, 19] [nM]
70 | 30 | 25 | 1650 | 1000 |  |  |  |  |  |  | CCCn1cc(-c2ccnc(Nc3ccc(C)c(S(=O)(=O)N4CCOCC4)c3)n2)c2ccncc21 [SG52] | 220 | 
0.4 | 0.5 | 0.5 | 50 | 59 |  |  |  |  |  |  | CCCn1cc(-c2ccnc(Nc3cccc(S(N)(=O)=O)c3)n2)c2ccncc21 [SG51] | < 100 | 
> 10000 | 1670 | > 10000 | 620 | 320 |  |  |  |  |  |  | CCCn1cc(-c2ccnc(Nc3ccc(S(N)(=O)=O)cc3)n2)c2nc(Cl)cc(C)c21 [SG54] | 1030 | 
6840 | > 10000 | > 10000 | 98 | 190 |  |  |  |  |  |  | CCCn1cc(-c2ccnc(Nc3cccc(S(N)(=O)=O)c3)n2)c2nc(Cl)cc(C)c21 [SG53] | 2000 | 
